# In patent publication US10457641B2, “Certain chemical entities, compositions, and methods” (NEUPHARMA, INC., priority 2012, dated 2019):
# Columns and labels:
# [1] = system: A375 (human melanoma cell, BRAF V600E Mutant); test: Inhibition of cancer cell growth, MTT assay, A375; assay type: cell-based; conditions: A-375, 72 h treatment
# Protocol: (§1) A375 (human melanoma cell, BRAF V600E Mutant), A549 (adenocarcinomic human alveolar basal epithelial cell) and Colo-205 (human colon carcinoma cell) were purchased from ATCC (American Type Culture Collection, Manassas, Va.). All cell lines were maintained in RPMI 1640 (Hyclone) or DMEM (Hyclone) supplemented with 10% fetal bovine serum (FBS, Hyclone), glutamine (2 mM, Hyclone), and antibiotics (penicillin 100 U/mL and streptomycin 50 μg/mL) at 37° C. in a humidified atmosphere of 5% CO2 in air.
# (§2) To test IC50 of inhibition of individual compounds against each cell line, A375, A549 and Colo-205 cells were first plated in 96-well plates at densities of 2000-4000 cells/well. Cells were then incubated to allow cells to adhere and grow for 24 h. Cells were then treated with a series of concentrations of compounds for 72 h. The highest concentration of compounds was 20 μM. Cells were then removed from the incubator and medium was removed by inverting and tapping the plates. 100 μL of MTT (0.5 mg/ml) or 10 μL or MTS was added to each well followed by an incubated at 37° C. for 4 h. Then MTT was removed and 200 μL of DMSO was added to each well, followed by reading the ODs at 570 nm after a 5 second shaking cycle in a 96-well spectrophotometer. For MTS method, MTS was not removed, and the incubated solutions were directly put in a 96-well spectrophotometer for the reading of the ODs at 492 nm.
# (§3) IC50 was calculated by plotting the concentration of compound vs the percentage of inhibition in treated wells using GraphPad Prism 5. […] The scale utilized in Table 3 is as follows: +++ less than 1 μM; ++ between 1 μM and 5 μM; and + greater than 5 μM.
# [2] = system: A549 (adenocarcinomic human alveolar basal epithelial cell); test: Inhibition of cancer cell growth, MTT assay, A549; assay type: cell-based; conditions: 72 h treatment
# Protocol: as §1, §2, §3
# BRAF V600E = target: T1, BRAF V600E (Homo sapiens, UniProt P15056, V600E); test: Z'-LYTE kinase inhibition assay, BRAF V600E; assay type: biochemical; conditions: 1 μM compound; Z'-LYTE method
# T1 construct: purchased Invitrogen
# T1 sequence (P15056 whole entry V600E): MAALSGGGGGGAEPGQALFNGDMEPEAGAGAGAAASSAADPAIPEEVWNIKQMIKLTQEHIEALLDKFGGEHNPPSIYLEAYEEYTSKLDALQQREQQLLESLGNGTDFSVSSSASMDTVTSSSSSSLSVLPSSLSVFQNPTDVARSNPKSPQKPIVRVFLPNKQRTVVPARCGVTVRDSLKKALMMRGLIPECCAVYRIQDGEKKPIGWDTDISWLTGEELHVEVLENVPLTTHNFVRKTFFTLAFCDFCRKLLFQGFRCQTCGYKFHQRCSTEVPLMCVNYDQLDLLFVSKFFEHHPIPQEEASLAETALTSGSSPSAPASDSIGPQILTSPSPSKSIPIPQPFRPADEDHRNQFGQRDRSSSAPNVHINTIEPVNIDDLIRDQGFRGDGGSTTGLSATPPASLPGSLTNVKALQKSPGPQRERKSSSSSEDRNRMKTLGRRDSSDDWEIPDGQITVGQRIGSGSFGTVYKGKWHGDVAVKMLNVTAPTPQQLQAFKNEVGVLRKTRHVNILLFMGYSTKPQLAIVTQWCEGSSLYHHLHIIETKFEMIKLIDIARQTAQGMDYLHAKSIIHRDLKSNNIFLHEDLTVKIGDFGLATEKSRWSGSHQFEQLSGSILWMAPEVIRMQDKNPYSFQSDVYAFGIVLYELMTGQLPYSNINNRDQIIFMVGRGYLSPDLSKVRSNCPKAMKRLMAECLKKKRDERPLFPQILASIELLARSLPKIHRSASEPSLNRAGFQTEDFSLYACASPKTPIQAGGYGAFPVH
# Protocol: (§4) Inhibitory activities of compounds against BRAF or BRAF V600E were measured by Invitrogen using Z′-LYTE® Method as briefly described in the following.
# (§5) 4× Test compounds are dissolved in 1% DMSO. […] ATP solutions are diluted to a 4×ATP working concentration in Kinase Buffer (50 mM HEPES pH 7.5, 0.01% BRIJ-35, 10 mM MgCl2, 1 mM EGTA).
# (§6) Reaction starts by 30-second shaking of mixture consisting of 2.5 μL 4× test compound, 2.5 μL 2× kinase reaction mixture and 2.5 μL 4×ATP Solution on Bar-coded Corning, low volume NBS, black 384-well plate (Corning Cat. #3676). Then the mixture is incubated for 60-minute at room temperature for the kinase reaction, followed by addition of 5 μL of a 1:1024 dilution of development reagent A and 30-second plate shake. The mixture is then incubated for another 60-minute at room temperature for development reaction. Finally fluorescence is read by plate reader.
# [3] = system: Colo-205 (human colon carcinoma cell); test: Inhibition of cancer cell growth, MTS assay, Colo-205; assay type: cell-based; conditions: 72 h treatment
# Protocol: as §1, §2, §3
# BRAF = target: T2, BRAF (Homo sapiens, UniProt P15056); test: Z'-LYTE kinase inhibition assay, BRAF; assay type: biochemical; conditions: 1 μM compound; Z'-LYTE method
# T2 construct: purchased Invitrogen
# T2 sequence (P15056 whole entry): as the sequence (P15056 whole entry V600E) above, with E600V counted along it
# Protocol: as §4, §5, §6
SMILES,IC50 [1],IC50 [2],inhibition at 1 µM (BRAF V600E),IC50 [3],inhibition at 1 µM (BRAF)
"O=C(Nc1cc(F)cc(F)c1)Nc1cc(F)c(F)c(C(=O)c2ccc3ncccc3c2)c1F [Compound C005, 1-(3,5-difluorophenyl)-3-(2,4,5-trifluoro-3-(quinoline-6-carbonyl)phenyl)urea]",1 to 5 µM,1 to 5 µM,< 70%,> 5 µM,
"CCCS(=O)(=O)Nc1cc(F)c(F)c(C(=O)c2ccc3ncncc3c2)c1F [Compound C010, N-(2,4,5-trifluoro-3-(quinazoline-6-carbonyl)phenyl)propane-1-sulfonamide]",< 1 µM,> 5 µM,> 89%,< 1 µM,> 89%
"O=C(Nc1cc(F)c(F)c(C(=O)c2ccc3ncccc3c2)c1F)c1ccc(F)c(F)c1 [Compound C009, 3,4-difluoro-N-(2,4,5-trifluoro-3-(quinoline-6-carbonyl)phenyl)benzamide]",> 5 µM,> 5 µM,< 70%,> 5 µM,
"O=C(Nc1ccc(F)cc1)Nc1cc(F)c(F)c(C(=O)c2ccc3ncccc3c2)c1F [Compound C003, 1-(4-fluorophenyl)-3-(2,4,5-trifluoro-3-(quinoline-6-carbonyl)phenyl)urea]",> 5 µM,> 5 µM,< 70%,> 5 µM,< 70%
"CCCS(=O)(=O)Nc1cc(F)c(F)c(C(=O)c2ccc3ncccc3c2)c1F [Compound C001, N-(2,4,5-trifluoro-3-(quinoline-6-carbonyl)phenyl)propane-1-sulfonamide]",< 1 µM,> 5 µM,> 89%,1 to 5 µM,70 to 89%
"O=C(Nc1cc(F)c(F)c(C(=O)c2ccc3ncccc3c2)c1F)c1cccc(F)c1 [Compound C006, 3-fluoro-N-(2,4,5-trifluoro-3-(quinoline-6-carbonyl)phenyl)benzamide]",> 5 µM,> 5 µM,70 to 89%,> 5 µM,< 70%
"O=C(Nc1cccc(F)c1)Nc1cc(F)c(F)c(C(=O)c2ccc3ncccc3c2)c1F [Compound C002, 1-(3-fluorophenyl)-3-(2,4,5-trifluoro-3-(quinoline-6-carbonyl)phenyl)urea]",> 5 µM,1 to 5 µM,< 70%,> 5 µM,
"O=C(Nc1cc(F)c(F)c(C(=O)c2ccc3ncccc3c2)c1F)c1cc(F)cc(F)c1 [Compound C008, 3,5-difluoro-N-(2,4,5-trifluoro-3-(quinoline-6-carbonyl)phenyl)benzamide]",> 5 µM,> 5 µM,< 70%,> 5 µM,< 70%
"O=C(Nc1ccc(F)c(F)c1)Nc1cc(F)c(F)c(C(=O)c2ccc3ncccc3c2)c1F [Compound C004, 1-(3,4-difluorophenyl)-3-(2,4,5-trifluoro-3-(quinoline-6-carbonyl)phenyl)urea]",> 5 µM,1 to 5 µM,< 70%,> 5 µM,
"O=C(Nc1cc(F)c(F)c(C(=O)c2ccc3ncccc3c2)c1F)c1ccc(F)cc1 [Compound C007, 4-fluoro-N-(2,4,5-trifluoro-3-(quinoline-6-carbonyl)phenyl)benzamide]",> 5 µM,> 5 µM,< 70%,> 5 µM,
